In patent US9192601B2, “Methods for enhancing muscle performance and tone” (Salk Institute for Biological Studies, priority 2006, dated 2015):
Entries after “also recorded” stand apart in the source; their conditions may differ.

Experiments:
[1] = tested on: C57B/6J mice; assay: Treadmill running endurance test; type: in vivo, mouse
Procedure: Mice were acclimated to moderate treadmill running (10 m/min for 15 min) every other day for 1 week. After acclimation, basal running endurance was determined by placing each mouse on a treadmill, gradually increasing the speed from 0 to 15 m/min, and maintaining 15 m/min until the mouse was exhausted. The time and distance run until exhaustion were recorded as the basal endurance values (Week 0).
Treatments were administered orally.
Expression of biomarkers characteristic of an oxidative phenotype in skeletal muscle, typically, has been correlated with increased oxidative performance (e.g., increased running endurance) of such skeletal muscle. […] Accordingly, to determine the functional effects of ligand, age and weight matched cohorts of treated and control mice were subjected to an endurance treadmill performance test before (week 0) and after (week 5) treatment.
(§1) In addition to affecting the contractile apparatus of skeletal muscle, exercise training also increases skeletal muscle mitochondrial density (e.g., Freyssenet et al., Arch. Physiol. Biochem., 104(2): 129-141, 1996). […] Mice in all groups were acclimated to moderate treadmill running and basal running endurance was determined as described in Example 1. Thereafter, mice in the exercise-trained groups received four weeks (5 days/week) of exercise training on a treadmill inclined at 5 degrees. […] At the end of four weeks, all exercise-trained mice were running for 50 min/day at 18 m/min. […] Unless otherwise noted, V, GW, Tr and GW+Tr subjects described in this and the examples below were similarly treated. At the end of the drug treatment and/or training protocol (Week 5) 6 mice per group were subjected to the running test. […] RNA was prepared real time quantitative PCR performed as described in Example 1.
At the end of the drug treatment and/or training protocol (Week 5) 6 mice per group were subjected to the running test.
At the end of the drug treatment and/or training protocol (Week 5), running endurance of six mice per group was determined in the same manner as was basal running endurance. […] on three mice in each group to confirm that changes observed in the skeletal muscle were not due to the acute run, but were related to the exercise training.

[2] = tested on: quadriceps muscle; assay: Real time quantitative PCR of gene expression in quadriceps muscle; type: in vivo, mouse
Procedure: Animals were euthanized by carbon dioxide asphyxiation 72 hours after the final treatment. Gastrocnemius and quadriceps muscles were isolated, frozen and stored at −80° C. for future analysis. Total RNA was prepared from quadriceps muscle using TRIzoL™ reagent (Invitrogen, Carlsbad, Calif., USA) in conformance with manufacturer's instructions. Real time quantitative PCR (QPCR) was used to determine expression levels of uncoupling protein 3 (UCP3), muscle carnitine palmitoyl transferase I (mCPT I) and pyruvate dehydrogenase kinase 4 (PDK4) using primers known to those of ordinary skill in the art.
as §1

[3] = tested on: primary muscle cells; assay: Gene expression in wild type and PPARδ null primary muscle cells; type: cell-based, mouse; settings: wild type vs PPARδ null cells
Procedure: Primary muscle cells were isolated from wild type and PPARδ null mice as previously described (Rando and Blau, J. Cell. Biol. 125(6): 1275-87, 1994). […] RNA expression of UCP3, PDK4, LPL, and HSL was determined using real time quantitative PCR as described in Example 1.
To test this possibility, wild-type and PPARδ null primary muscle cells were used.

[4] = tested on: type I (slow oxidative) muscle fibers; assay: Meta-chromatic staining of gastrocnemius fiber types; type: in vivo, mouse
Excerpt: In this assay, muscle fibers with high ATPase activity {e.g., type I (slow oxidative) muscle fibers) are darkly stained.

[5] = tested on: myosin heavy chain (MHC); assay: Myosin heavy chain (MHC) expression; type: in vivo, mouse
Procedure: In addition to its effects on the fiber type, exercise training increased skeletal muscle mitochondrial biogenesis, which can be measured as a function of mitochondrial DNA expression levels using quantitative real time PCR (QPCR). Mitochondrial DNA expression levels were determined in muscles of V, GW, Tr, and GW+Tr subjects using quantitative real time PCR. […] Such an increase is known to contribute to enhanced endurance capacity (e.g., Holloszy, Med. Sci. Sports 7:155-64, 1975). Slow-twitch and fast-twitch muscle fiber types also can be distinguished by myosin isoform expression (Gauthier and Lowey, J. Cell Biol. 81:10-25, 1979; Fitzsimons and Hoh, Biochem. J. 193:229-33, 1981). […] Therefore, at least at the transcriptional level, the PPARδ agonist was capable of inducing some proteins characteristic of a slow-twitch muscle fiber phenotype.

[6] = Muscle triglyceride (mTG) content; type: in vivo, mouse
Procedure: Altered triglycerides can be used to access changes in muscle oxidative capacity. Muscle triglyceride (mTG) content was measured as previously described (Wang et al., PLoC Biol, 2:e294, 2004) using a kit from Thermo Electron Corporation. […] Gene and/or protein expression that is induced by a combination of exercise and drug treatment (e.g., PPARδ agonist administration) but not by either input alone is believed to be a new discovery. This type of response can be used to further characterize the intersection of pharmacologic and physiologic genetic networks. For example, one or more genes and/or proteins uniquely regulated by one or more drugs {e.g., PPARδ agonists) and exercise can be used as markers, for instance, of illicitly boosting performance in professional and/or amateur athletes.

[7] = tested on: epididymal white adipose; assay: Epididymal fat to body weight ratio and H&E staining of white adipose; type: in vivo, mouse; settings: GW1516 in combination with exercise
Procedure: Hematoxylin and eosin (H&E) staining of white adipose tissue paraffin sections was performed as previously described (Wang et al., PLoS Biol., 2:e294, 2004; Wang et al., Cell, 113:159-70, 2003).

[8] = tested on: AMPK; assay: Western blot of phospho-AMPK in quadriceps; type: in vivo, mouse; settings: sedentary or trained muscles
Excerpt: (§2) Exercise training is known to activate kinases, such as p44/42 MAPK and AMPK, which regulate gene expression in skeletal muscle (Chen et al., Diabetes, 52:2205-12, 2003; Goodyear et al., Am. J. Physiol, 271:[…]-8, 1996). AMPK affects skeletal muscle gene expression and oxidative metabolism (Chen et al., Diabetes. 52: 2205-12, 2003, Reznick et al., J. Physiol. 574: 33-9, 2006). The interaction between exercise-regulated kinases and PPARδ signaling is described in this Example. The levels of phospho-p44/42 MAPK and phospho-AMPK a subunit and total AMPK were determined in protein homogenates of quadriceps muscle by Western blot. Antibodies specific for phospho-p44/42 MAPK, phospho- and total-AMPK αl antibodies were obtained from Cell Signaling. The phospho-specific AMPK αl antibody recognizes the key activating threonine in the activation loop.

[9] = tested on: p44/42 MAPK; assay: Western blot of phospho-p44/42 MAPK in quadriceps; type: in vivo, mouse; settings: sedentary or trained muscles
Excerpt: as §2

[10] = 4 weeks exercise training + GW1516, Week 5

## Cc1cc(SCc2sc(-c3ccc(C(F)(F)F)cc3)nc2C)ccc1OCC(=O)O [GW1516, (2-methyl-4(((4-methyl-2-(4-trifluoromethylphenyl)-1,3-thiazol-5-yl)methyl)sulfanyl)phenoxy)acetic acid]
[1]; [10]
  increase in running distance over vehicle-treated trained mice: 70%
  increase in running time over vehicle-treated trained mice: 68%
[1]; combined with exercise training
  run longer and further than nontreated controls: 60%-75%
[1]; exercise and drug treatment, individual mice
  increment in endurance capacity, week 5 vs week 0: 100%
[1]; sedentary mice, 5 mg/kg oral once per day, 4 weeks
  time spent or distance run on the treadmill prior to exhaustion vs controls: did not significantly differ
[1]; sedentary mice, long-term treatment up to 5 months
  running endurance: did not change
[2]; 2-5 mg/kg/day
  earliest detection of changes in UCP3, mCPT I, PDK4 expression: 4 days
[2]; GW1516 alone
  expression of SCDl, FAS, SREBPIc, FAT/CD36, LPL: no response
[2]; GW1516 alone, four weeks, quadriceps
  expression of UCP3, mCPT I, and PDK4: induced; also recorded: upregulated
[2]; GW1516 combined with exercise
  expression of SCDl, FAS, SREBPIc, FAT/CD36, LPL: robustly induced
[2]; GW1516 with exercise vs GW1516 alone
  expression of UCP3, mCPT I, and PDK4: no further induction
[3]
  induction of oxidative genes (UCP3, mCPT I, PDK4): mediated via activation of PPARδ
[4]; GW1516 treatment and exercise training
  number of type I muscle fibers in exercised muscle: significantly increased
[4]; sedentary mice, gastrocnemius
  proportion of type I muscle fibers vs vehicle: no significant difference
[4]; trained mice
  increase in proportion of type I fibers vs vehicle-treated sedentary mice: 38%
[5]; GW1516 combined with exercise
  MHC I and MHC lib expression: did not induce additional changes
[5]; sedentary mice
  expression of MHC Ha: did not alter
[5]; sedentary mice vs vehicle
  expression of MHC I: increased
  expression of MHC lib: decreased
[6]; GW1516-treated exercise trained mice
  exercise-induced increase in muscle triglycerides: completely reversed
[6]; sedentary mice
  mTG content vs vehicle: comparable
[7]
  cross-sectional area of the adipocytes: decreased
[8]
  activation of AMPK: failed to activate
[9]
  activation of p44/42: failed to activate
